In US10202377B2, “3-(1H-benzo[D]imidazol-2-yl)-1H-pyrazolo[3,4-C]pyridine and therapeutic uses thereof” (Samumed, LLC, priority 2014, dated 2019):
pEC50, pIC50: −log10 of the molar value.

How the values were obtained:
[1] = tested on: primary human fibroblasts derived from IPF patients (LL29 cells); assay: Inhibition of fibrosis (αSMA staining) in TGF-β1-treated primary human fibroblasts from IPF patients; assay type: cell-based; details: Fibroblast, 96 h, TGF-β1 20 ng/mL, 4 days
Protocol: The above synthesized compounds were screened using primary human fibroblasts (derived from IPF patients) treated with TGF-β1 to determine their ability to inhibit the fibrotic process.
Compound Screening: Each compound was dissolved in DMSO as a 10 mM stock and used to prepare compound source plates. […] LL29 cells were plated at 1,500 cells/well in 80 μl/well F12 medium supplemented with 1% Fetal Bovine Serum. One hour after addition of the cells, TGF-β1 (Peprotech; 20 ng/mL) was added to the plates to induce fibrosis (ref. 1 and 2 above). Wells treated with TGF-β1 and containing DMSO were used as controls. Cells were incubated at 37° C. and 5% CO2 for 4 days. Following incubation for 4 days, SYTOX green nucleic acid stain (Life Technologies [Thermo Fisher Scientific]) was added to the wells at a final concentration of 1 uM and incubated at room temperature for 30 min. Cells were then fixed using 4% formaldehyde (Electron Microscopy Sciences), washed 3 times with PBS followed by blocking and permeabilization using 3% Bovine Serum Albumin (BSA; Sigma) and 0.3% Triton X-100 (Sigma) in PBS. Cells were then stained with antibody specific to α-smooth muscle actin (aSMA; Abcam) (ref. 1 and 2 above) in 3% Bovine Serum Albumin (BSA; Sigma) and 0.3% Triton X-100 (Sigma) in PBS, and incubated overnight at 4° C. […] Dead or apoptotic cells were excluded from analysis based on positive SYTOX green staining. % of total cells positive for αSMA were counted in each well and normalized to the average of 11 wells treated with TGF-β1 on the same plate using Dotmatics' Studies Software. […] The EC50 values are reported.

[2] = tested on: Wnt activity (Sp5-Luc reporter, SW480 colon carcinoma cells); assay: Sp5-Luc Wnt reporter gene screening assay in SW480 colon carcinoma cells; details: Homo sapiens

SMILES	pEC50 [1]	pIC50 [2]
O=C(Cc1ccccc1)Nc1cncc(-c2cc3c(-c4nc5ccccc5[nH]4)n[nH]c3cn2)c1 [Compound 244, N-(5-(3-(1H-Benzo[d]imidazol-2-yl)-1H-pyrazolo[3,4-c]pyridin-5-yl)pyridin-3-yl)-2-phenylacetamide]	5.71	6.68
CC(C)(C)CC(=O)Nc1cncc(-c2cc3c(-c4nc5ccccc5[nH]4)n[nH]c3cn2)c1 [Compound 250, N-(5-(3-(1H-Benzo[d]imidazol-2-yl)-1H-pyrazolo[3,4-c]pyridin-5-yl)pyridin-3-yl)-3,3-dimethylbutanamide]	6.59	6.74
Cc1ccncc1-c1cc2c(-c3nc4c(-c5ccsc5)cccc4[nH]3)n[nH]c2cn1 [Compound 265, 5-(4-Methylpyridin-3-yl)-3-(4-(thiophen-3-yl)-1H-benzo[d]imidazol-2-yl)-1H-pyrazolo[3,4-c]pyridine]	8.05	7.71
CC(C)(C)C(=O)Nc1cncc(-c2cc3c(-c4nc5c(-c6ccsc6)cccc5[nH]4)n[nH]c3cn2)c1 [Compound 268, N-(5-(3-(4-(Thiophen-3-yl)-1H-benzo[d]imidazol-2-yl)-1H-pyrazolo[3,4-c]pyridin-5-yl)pyridin-3-yl)pivalamide]	8.05	7.12
O=C(Nc1cncc(-c2cc3c(-c4nc5c(-c6ccsc6)cccc5[nH]4)n[nH]c3cn2)c1)c1ccccc1 [Compound 271, N-(5-(3-(4-(Thiophen-3-yl)-1H-benzo[d]imidazol-2-yl)-1H-pyrazolo[3,4-c]pyridin-5-yl)pyridin-3-yl)benzamide]	8.05	7.27
CCCC(=O)Nc1cncc(-c2cc3c(-c4nc5c(-c6ccsc6)cccc5[nH]4)n[nH]c3cn2)c1 [Compound 277, N-(5-(3-(4-(Thiophen-3-yl)-1H-benzo[d]imidazol-2-yl)-1H-pyrazolo[3,4-c]pyridin-5-yl)pyridin-3-yl)butyramide]	8.05	7.36
c1ccc(CNCc2cncc(-c3cc4c(-c5nc6c(-c7ccsc7)cccc6[nH]5)n[nH]c4cn3)c2)cc1 [Compound 283, N-Benzyl-1-(5-(3-(4-(thiophen-3-yl)-1H-benzo[d]imidazol-2-yl)-1H-pyrazolo[3,4-c]pyridin-5-yl)pyridin-3-yl)methanamine]	8.05	7.51
CCNCc1cncc(-c2cc3c(-c4nc5c(-c6ccoc6)cccc5[nH]4)n[nH]c3cn2)c1 [Compound 292, N-((5-(3-(4-(Furan-3-yl)-1H-benzo[d]imidazol-2-yl)-1H-pyrazolo[3,4-c]pyridin-5-yl)pyridin-3-yl)methyl)ethanamine]	8.05	7.53
CC(C)(C)C(=O)Nc1cncc(-c2cc3c(-c4nc5c(-c6ccoc6)cccc5[nH]4)n[nH]c3cn2)c1 [Compound 294, N-(5-(3-(4-(Furan-3-yl)-1H-benzo[d]imidazol-2-yl)-1H-pyrazolo[3,4-c]pyridin-5-yl)pyridin-3-yl)pivalamide]	8.05	7.31
CC(C)C(=O)Nc1cncc(-c2cc3c(-c4nc5c(-c6ccoc6)cccc5[nH]4)n[nH]c3cn2)c1 [Compound 295, N-(5-(3-(4-(Furan-3-yl)-1H-benzo[d]imidazol-2-yl)-1H-pyrazolo[3,4-c]pyridin-5-yl)pyridin-3-yl)isobutyramide]	6.60	7.41
CC(C)Nc1cncc(-c2cc3c(-c4nc5c(-c6ccoc6)cccc5[nH]4)n[nH]c3cn2)c1 [Compound 298, 5-(3-(4-(Furan-3-yl)-1H-benzo[d]imidazol-2-yl)-1H-pyrazolo[3,4-c]pyridin-5-yl)-N-isopropylpyridin-3-amine]	8.05	7.89
c1cc(-c2ccoc2)c2nc(-c3n[nH]c4cnc(-c5cncc(CNCC6CCCC6)c5)cc34)[nH]c2c1 [Compound 310, 1-Cyclopentyl-N-((5-(3-(4-(furan-3-yl)-1H-benzo[d]imidazol-2-yl)-1H-pyrazolo[3,4-c]pyridin-5-yl)pyridin-3-yl)methyl)methanamine]	7.08	7.23
CCC(=O)Nc1cncc(-c2cc3c(-c4nc5c(-c6cccs6)cccc5[nH]4)n[nH]c3cn2)c1 [Compound 313, N-(5-(3-(4-(Thiophen-2-yl)-1H-benzo[d]imidazol-2-yl)-1H-pyrazolo[3,4-c]pyridin-5-yl)pyridin-3-yl)propionamide]	6.34	6.90
CC(C)(C)C(=O)Nc1cncc(-c2cc3c(-c4nc5c(-c6cccs6)cccc5[nH]4)n[nH]c3cn2)c1 [Compound 320, N-(5-(3-(4-(Thiophen-2-yl)-1H-benzo[d]imidazol-2-yl)-1H-pyrazolo[3,4-c]pyridin-5-yl)pyridin-3-yl)pivalamide]	7.02	7.25
CC(C)C(=O)Nc1cncc(-c2cc3c(-c4nc5c(-c6cccs6)cccc5[nH]4)n[nH]c3cn2)c1 [Compound 321, N-(5-(3-(4-(Thiophen-2-yl)-1H-benzo[d]imidazol-2-yl)-1H-pyrazolo[3,4-c]pyridin-5-yl)pyridin-3-yl)isobutyramide]	6.51	7.79
CN(C)Cc1cncc(-c2cc3c(-c4nc5c(-c6cccs6)cccc5[nH]4)n[nH]c3cn2)c1 [Compound 325, N,N-Dimethyl-1-(5-(3-(4-(thiophen-2-yl)-1H-benzo[d]imidazol-2-yl)-1H-pyrazolo[3,4-c]pyridin-5-yl)pyridin-3-yl)methanamine]	8.05	7.57
CCCC(=O)Nc1cncc(-c2cc3c(-c4nc5c(-c6cccs6)cccc5[nH]4)n[nH]c3cn2)c1 [Compound 329, N-(5-(3-(4-(Thiophen-2-yl)-1H-benzo[d]imidazol-2-yl)-1H-pyrazolo[3,4-c]pyridin-5-yl)pyridin-3-yl)butyramide]	7.17	7.25
FC1(F)CCN(Cc2cncc(-c3cc4c(-c5nc6c(-c7cccs7)cccc6[nH]5)n[nH]c4cn3)c2)C1 [Compound 337, 5-(5-((3,3-Difluoropyrrolidin-1-yl)methyl)pyridin-3-yl)-3-(4-(thiophen-2-yl)-1H-benzo[d]imidazol-2-yl)-1H-pyrazolo[3,4-c]pyridine]	8.05	7.04
Fc1ccc(-c2cccc3[nH]c(-c4n[nH]c5cnc(-c6cncc(CN7CCCC7)c6)cc45)nc23)s1 [Compound 352, 3-(4-(5-Fluorothiophen-2-yl)-1H-benzo[d]imidazol-2-yl)-5-(5-(pyrrolidin-1-ylmethyl)pyridin-3-yl)-1H-pyrazolo[3,4-c]pyridine]	5.00	7.52
O=C(Nc1cncc(-c2cc3c(-c4nc5c(-c6ccc(F)s6)cccc5[nH]4)n[nH]c3cn2)c1)C1CCC1 [Compound 358, N-(5-(3-(4-(5-Fluorothiophen-2-yl)-1H-benzo[d]imidazol-2-yl)-1H-pyrazolo[3,4-c]pyridin-5-yl)pyridin-3-yl)cyclobutanecarboxamide]	5.00	7.94
Cc1ccc(-c2cccc3[nH]c(-c4n[nH]c5cnc(-c6cncc(NC(=O)CC(C)C)c6)cc45)nc23)s1 [Compound 366, 3-Methyl-N-(5-(3-(4-(5-methylthiophen-2-yl)-1H-benzo[d]imidazol-2-yl)-1H-pyrazolo[3,4-c]pyridin-5-yl)pyridin-3-yl)butanamide]	6.65	7.51
Cc1ccc(-c2cccc3[nH]c(-c4n[nH]c5cnc(-c6cncc(NC(=O)C(C)C)c6)cc45)nc23)s1 [Compound 373, N-(5-(3-(4-(5-Methylthiophen-2-yl)-1H-benzo[d]imidazol-2-yl)-1H-pyrazolo[3,4-c]pyridin-5-yl)pyridin-3-yl)isobutyramide]	7.85	7.49
Cc1ccc(-c2cccc3[nH]c(-c4n[nH]c5cnc(-c6cncc(CN7CCCCC7)c6)cc45)nc23)s1 [Compound 379, 3-(4-(5-Methylthiophen-2-yl)-1H-benzo[d]imidazol-2-yl)-5-(5-(piperidin-1-ylmethyl)pyridin-3-yl)-1H-pyrazolo[3,4-c]pyridine]	8.05	6.44
CCCC(=O)Nc1cncc(-c2cc3c(-c4nc5c(-c6ccc(C)s6)cccc5[nH]4)n[nH]c3cn2)c1 [Compound 381, N-(5-(3-(4-(5-Methylthiophen-2-yl)-1H-benzo[d]imidazol-2-yl)-1H-pyrazolo[3,4-c]pyridin-5-yl)pyridin-3-yl)butyramide]	7.10	7.67
Cc1ccc(-c2cccc3[nH]c(-c4n[nH]c5cnc(-c6cncc(NC(=O)C7CCCC7)c6)cc45)nc23)s1 [Compound 385, N-(5-(3-(4-(5-Methylthiophen-2-yl)-1H-benzo[d]imidazol-2-yl)-1H-pyrazolo[3,4-c]pyridin-5-yl)pyridin-3-yl)cyclopentanecarboxamide]	7.70	7.48
CC(=O)c1ccc(-c2cccc3[nH]c(-c4n[nH]c5cnc(-c6cccnc6)cc45)nc23)s1 [Compound 394, 1-(5-(2-(5-(Pyridin-3-yl)-1H-pyrazolo[3,4-c]pyridin-3-yl)-1H-benzo[d]imidazol-4-yl)thiophen-2-yl)ethan-1-one]	6.96	7.35
